Values quoted from earlier work in patent US20130202706A1 (DRUGGABILITY TECHNOLOGIES IP HOLDCO (JERSEY) LTD., priority 2010, published 2013).

Conditions: oral administration

systemic availability of HMG-CoA reductase inhibitory activity: approximately 30%
SMILES: CC(C)c1c(C(=O)Nc2ccccc2)c(-c2ccccc2)c(-c2ccc(F)cc2)n1CC[C@@H](O)C[C@@H](O)CC(=O)O [Atorvastatin]
